According to ChEMBL document CHEMBL4330117, “Synthesis, biological evaluation and molecular docking of benzimidazole grafted benzsulfamide-containing pyrazole ring derivatives as novel tubulin polymerization inhibitors” (Bioorg Med Chem, 2019):
pIC50: −log10 of the molar value. Active and inactive are the calls of the source. No cut-off for these calls is given here.

Key:
Tubulin (Homo sapiens) [1] = biological target: T1, Tubulin (Homo sapiens) (UniProt P68371+Q9H4B7+P0DPH7+P68366+Q13509+Q71U36+P04350+Q3ZCM7+P07437+P68363+Q9BQE3+Q6PEY2+Q13885+Q9BVA1+Q9BUF5); experiment: Induction of microtubule disruption in human A549 cells assessed as cell rounding at 0.2 uM after 24 hrs by rhodamine and DAPI staining based immunofluorescence microscopic analysis
A549 [2] = experiment: Cell cycle arrest in human A549 cells assessed as downregulation of cdc25c expression level after 24 hrs by Western blot analysis; format: functional, cell-based
A549 [3] = experiment: Induction of apoptosis in human A549 cells assessed as late apoptotic cells at 0.1 uM after 24 hrs by Annexin V-FITC/propidium iodide staining-based flow cytometric analysis (reference value: 3.55%); format: functional
Rattus norvegicus = experiment: Antitumor activity against rat hepatoma H22 cells implanted in mouse assessed as reduction in tumor volume at 3 mg/kg, ip measured after 8 to 28 days; format: functional, organism-based
Tubulin (Bos taurus) [4] = biological target: T2, Tubulin (Bos taurus) (UniProt Q6B856+Q862L2+Q862F3); experiment: Inhibition of [3H]colchicine binding to bovine brain tubulin at 5 uM
A549 [5] = experiment: Induction of apoptosis in human A549 cells assessed as upregulation of cleaved caspase-3 level up to 0.5 uM after 24 hrs by Western blot analysis; format: functional, cell-based
A549 [6] = experiment: Cell cycle arrest in human A549 cells assessed as accumulation at G2/M phase at 0.3 uM after 24 hrs by propidium iodide/RNase A staining-based flow cytometric analysis (reference value: 17.62%); format: functional
A549 [7] = experiment: Induction of apoptosis in human A549 cells assessed as necrotic cells at 0.5 uM after 24 hrs by Annexin V-FITC/propidium iodide staining-based flow cytometric analysis (reference value: 10.8%); format: functional
A549 [8] = experiment: Cell cycle arrest in human A549 cells assessed as accumulation at S phase at 0.5 uM after 24 hrs by propidium iodide/RNase A staining-based flow cytometric analysis (reference value: 11.36%); format: functional
A549 [9] = experiment: Cell cycle arrest in human A549 cells assessed as accumulation at G1 phase at 0.1 uM after 24 hrs by propidium iodide/RNase A staining-based flow cytometric analysis (reference value: 71.02%); format: functional
A549 [10] = experiment: Induction of apoptosis in human A549 cells assessed as necrotic cells at 0.1 uM after 24 hrs by Annexin V-FITC/propidium iodide staining-based flow cytometric analysis (reference value: 10.8%); format: functional
A549 [11] = experiment: Cell cycle arrest in human A549 cells assessed as accumulation at G1 phase at 0.3 uM after 24 hrs by propidium iodide/RNase A staining-based flow cytometric analysis (reference value: 71.02%); format: functional
A549 [12] = experiment: Cell cycle arrest in human A549 cells assessed as upregulation of cyclin B1 expression level after 24 hrs by Western blot analysis; format: functional, cell-based
MCF7 = experiment: Antiproliferative activity against human MCF7 cells after 24 hrs by MTT assay; format: functional, cell-based; details: MCF7, 24 h
A549 [13] = experiment: Cell cycle arrest in human A549 cells assessed as upregulation of p21 expression level after 24 hrs by Western blot analysis; format: functional, cell-based
A549 [14] = experiment: Cell cycle arrest in human A549 cells assessed as accumulation at G2/M phase at 0.1 uM after 24 hrs by propidium iodide/RNase A staining-based flow cytometric analysis (reference value: 17.62%); format: functional
[15] = Cytotoxicity against mouse primary hepatocytes after 24 hrs by MTT assay; format: cell-based, Hepatocyte
A549 [16] = experiment: Cell cycle arrest in human A549 cells assessed as accumulation at S phase at 0.1 uM after 24 hrs by propidium iodide/RNase A staining-based flow cytometric analysis (reference value: 11.36%); format: functional
A549 [17] = experiment: Induction of apoptosis in human A549 cells assessed as downregulation of Bcl2 level up to 0.5 uM after 24 hrs by Western blot analysis; format: functional, cell-based
A549 [18] = experiment: Induction of apoptosis in human A549 cells assessed as necrotic cells at 0.3 uM after 24 hrs by Annexin V-FITC/propidium iodide staining-based flow cytometric analysis (reference value: 10.8%); format: functional
A549 [19] = experiment: Induction of microtubule disruption in human A549 cells assessed as spindle microtubule disorganization accompanied by misaligned chromosomes from metaphase plate at 0.5 uM after 24 hrs by rhodamine and DAPI staining based immunofluorescence microscopic analysis; format: functional, cell-based
A549 [20] = experiment: Induction of apoptosis in human A549 cells assessed as late apoptotic cells at 0.5 uM after 24 hrs by Annexin V-FITC/propidium iodide staining-based flow cytometric analysis (reference value: 3.55%); format: functional
A549 [21] = experiment: Cell cycle arrest in human A549 cells assessed as accumulation at S phase at 0.3 uM after 24 hrs by propidium iodide/RNase A staining-based flow cytometric analysis (reference value: 11.36%); format: functional
A549 [22] = experiment: Cell cycle arrest in human A549 cells assessed as accumulation at G2/M phase at 0.5 uM after 24 hrs by propidium iodide/RNase A staining-based flow cytometric analysis (reference value: 17.62%); format: functional
HepG2 = experiment: Antiproliferative activity against human HepG2 cells after 24 hrs by MTT assay; format: functional, cell-based; details: HepG2, 24 h
Tubulin (Bos taurus) [23] = biological target: T2, Tubulin (Bos taurus); experiment: Inhibition of vinblastine binding to bovine brain tubulin at 5 uM
A549 [24] = experiment: Induction of apoptosis in human A549 cells assessed as upregulation of Bax level up to 0.5 uM after 24 hrs by Western blot analysis; format: functional, cell-based
A549 [25] = experiment: Induction of apoptosis in human A549 cells assessed as early apoptotic cells at 0.1 uM after 24 hrs by Annexin V-FITC/propidium iodide staining-based flow cytometric analysis (reference value: 2.81%); format: functional
A549 [26] = experiment: Antiproliferative activity against human A549 cells after 24 hrs by MTT assay; format: functional, cell-based; details: A549, 24 h
A549 [27] = experiment: Induction of apoptosis in human A549 cells assessed as viable cells at 0.5 uM after 24 hrs by Annexin V-FITC/propidium iodide staining-based flow cytometric analysis (reference value: 82.8%); format: functional; details: A549, 24 h, read-out: Activity
[28] = Toxicity in mouse xenografted with rat H22 cells assessed as weight loss at 3 mg/kg, ip measured after 28 days; format: organism-based; details: in vivo, 672 h
A549 [29] = experiment: Induction of apoptosis in human A549 cells assessed as late apoptotic cells at 0.3 uM after 24 hrs by Annexin V-FITC/propidium iodide staining-based flow cytometric analysis (reference value: 3.55%); format: functional
A549 [30] = experiment: Cell cycle arrest in human A549 cells assessed as downregulation of Cdc2 expression level after 24 hrs by Western blot analysis; format: functional, cell-based
[31] = Cytotoxicity against HEK293T cells after 24 hrs by MTT assay; format: cell-based, HEK-293T; details: human
Tubulin (Homo sapiens) [32] = biological target: T1, Tubulin (Homo sapiens); experiment: Induction of microtubule disruption in human A549 cells assessed as cell contraction at 0.2 uM after 24 hrs by rhodamine and DAPI staining based immunofluorescence microscopic analysis
HeLa = experiment: Antiproliferative activity against human HeLa cells after 24 hrs by MTT assay; format: functional, cell-based
A549 [33] = experiment: Induction of apoptosis in human A549 cells assessed as upregulation of cleaved PARP level up to 0.5 uM after 24 hrs by Western blot analysis; format: functional, cell-based
A549 [34] = experiment: Induction of apoptosis in human A549 cells assessed as early apoptotic cells at 0.5 uM after 24 hrs by Annexin V-FITC/propidium iodide staining-based flow cytometric analysis (reference value: 2.81%); format: functional
A549 [35] = experiment: Induction of apoptosis in human A549 cells assessed as viable cells at 0.3 uM after 24 hrs by Annexin V-FITC/propidium iodide staining-based flow cytometric analysis (reference value: 82.8%); format: functional; details: A549, 24 h, read-out: Activity
A549 [36] = experiment: Cell cycle arrest in human A549 cells assessed as accumulation at G1 phase at 0.5 uM after 24 hrs by propidium iodide/RNase A staining-based flow cytometric analysis (reference value: 71.02%); format: functional
A549 [37] = experiment: Induction of apoptosis in human A549 cells assessed as viable cells at 0.1 uM after 24 hrs by Annexin V-FITC/propidium iodide staining-based flow cytometric analysis (reference value: 82.8%); format: functional; details: A549, 24 h, read-out: Activity
A549 [38] = experiment: Induction of apoptosis in human A549 cells assessed as early apoptotic cells at 0.3 uM after 24 hrs by Annexin V-FITC/propidium iodide staining-based flow cytometric analysis (reference value: 2.81%); format: functional
A549 [39] = experiment: Cell cycle arrest in human A549 cells assessed as accumulation at G2/M phase after 24 hrs by propidium iodide/RNase A staining-based flow cytometric analysis; format: functional

Activity (Tubulin (Homo sapiens) [1]): Active
inhibition (Tubulin (Bos taurus) [4]): 91%
pIC50 (MCF7): 6.77
pIC50 (HepG2): 6.48
inhibition (Tubulin (Bos taurus) [23]): 0.06%
pIC50 (A549 [26]): 6.82
Activity (Tubulin (Homo sapiens) [32]): Active
pIC50 (HeLa): 6.68
Compound: Cc1ccc(C)c(S(=O)(=O)n2c(-c3cn(-c4ccccc4)nc3-c3ccc(C(F)(F)F)cc3)nc3ccccc32)c1
Activity (A549 [2]): Dose-dependent effect
Activity (A549 [3]): 4.9%
Activity (Rattus norvegicus): Active
Activity (A549 [5]): Active
Activity (A549 [6]): 28.13%
Activity (A549 [7]): 18.2%
Activity (A549 [8]): 12.11%
Activity (A549 [9]): 62.95%
Activity (A549 [10]): 13.4%
Activity (A549 [11]): 53.31%
Activity (A549 [12]): Dose-dependent effect
Activity (A549 [13]): Dose-dependent effect
Activity (A549 [14]): 22.63%
CC50 at 24 h [15]: 132000 nM
Activity (A549 [16]): 14.42%
Activity (A549 [17]): Active
Activity (A549 [18]): 16.3%
Activity (A549 [19]): Active
Activity (A549 [20]): 8.74%
Activity (A549 [21]): 18.56%
Activity (A549 [22]): 40.26%
Activity (A549 [24]): Active
Activity (A549 [25]): 3.08%
viability at 0.5 µM (A549 [27]): 62.9%
Activity [28]: Non-Toxic
Activity (A549 [29]): 5.95%
Activity (A549 [30]): Dose-dependent effect
CC50 at 24 h [31]: 223000 nM
Activity (A549 [33]): Active
Activity (A549 [34]): 10.1%
viability at 0.3 µM (A549 [35]): 71%
Activity (A549 [36]): 47.63%
viability at 0.1 µM (A549 [37]): 78.6%
Activity (A549 [38]): 6.69%
Activity (A549 [39]): Dose-dependent effect
